Measured values from patent US20080027098A1, “Derivatives of alpha-phenylthiocarboxylic and alpha-phenyloxy-carboxylic acids useful for the treatment of diseases responding to PPARalpha activation” (SIGMA-TAU INDUSTRIE FARMACEUTICHE RIUNITE S.p.A., priority 2002, published 2008).
Marks after values point to notes of the source that are not given here. Values belong to the molecule of their own block, whether it stands above or below them.

Columns and labels:
[1] = tested on: high-cholesterol diet-fed CD-1 mice; assay: Hypolipidemic activity in high-cholesterol diet-fed CD-1 mice; type: in vivo; conditions: 16 days; for P-triglycerides / P-Cholesterol: post-absorptive state; for P-triglycerides: control 49 ± 3; for P-Cholesterol: control 350 ± 28
Description: High-Cholesterol Diet-Fed CD-1 Mice
ST2518, fenofibrate, rosiglitazone and pioglitazone (PPARγ agonists) were administered by gavage, for 16 days, to CD-1 mice fed with high-cholesterol diet, and plasma parameters were evaluated in post-absorptive state.

hAPO A I transgenic mice = assay: Plasma lipid parameters in hAPO A I transgenic mice; type: in vivo; conditions: 16 days; for P-triglycerides / P-hdl-cholesterol: post-absorptive state; for P-triglycerides: control 75 ± 6; for P-hdl-cholesterol: control 163 ± 6
Description: ST2518, fenofibrate and rosiglitazone were administered by gavage for 16 days, and plasma (p) parameters were evaluated in post-absorptive state.

[2] = tested on: standard diet-fed c57bl/6j mice; assay: Hypolipidemic activity in standard diet-fed c57bl/6j mice; type: in vivo; conditions: for Triglycerides (plasma): 15 days, post-absorptive state, control 53.8 ± 4.2
Description: Standard Diet-Fed c57bl/6j Mice
ST2518 was evaluated in comparison with fenofibrate also in c57b1/6j mice fed with standard diet (Table 5).

db/db mice = assay: Increase in HDL-cholesterol levels in db/db mice; type: in vivo
Description: Increase in HDL-Cholesterol Levels in db/db Mice
In this experiment db/db mice were used in which PPARα expression is above normal (Memon et al., Endocrinology 2000, 4021-4031) and HDL-cholesterol levels are substantially elevated (Silver et al., J Biol Chem 1999, 274: 4140-4146).
The C57BL[KsJ db/db mice were acclimatised for one week in standard conditions (22±2° C.; 55±15% humidity; 15-20 air changes/hour; 12 hours light/darkness cycle with light from 7.00 a.m. to 7 p.m.) with a standard 4 RF21 diet (Mucedola). Blood samples were taken in post-absorption conditions (fasting from 8.30 a.m. to 4.30 p.m.) from the caudal vein with the aid of a Jelco 22G catheter (Johnson and Johnson). Glucose, insulin, triglyceride, cholesterol, free fatty acid and urea levels were checked in plasma for a homogeneous distribution of the mice in the treatment groups.
At the beginning of treatment the animals' body weight was checked and arrangements were made to monitor their water and feed consumption. […]
The compound tested, obtained as described in example 4 (ST 1929) was administered at the dose of 24 mg/kg in 10 ml/kg of vehicle (1% CMC containing Tween 80 0.5% in deionized H2O).
The other compounds tested were also administered at a dose equivalent to that in example 4.
Ciprofibrate, a known PPARα agonist (Varanasi et al., J Biol Chem 1996, 271: 2147-2155; Latruffe et al. Cell Biochem Biophys 2000, 32 Spring: 213-220) was administered at the dose of 20 mg/kg (Dwivedi et al., Toxicol Pathol 1989, 17: 16-26; Qi et al., Proc Natl Acad Sci USA 1999, 96: 1585-1590).
The animals were sacrificed (by decapitation) in conditions of post-absorption (fasting from 9.30 a.m. to 4.30 p.m.) 7 hours after the last treatment. The levels of a number of important lipid and carbohydrate metabolism parameters were determined in the serum.
The HDL-cholesterol levels were measured by treating the serum with phosphotungstic-acid-based precipitating reagent (ABX Diagnostics) which removes the chylomicrons, very low density and low density lipoproteins and determining the HDL-cholesterol levels in the supernatant with the aid of the Cholesterol Kit (ABX Diagnostics) and the Cobas Mira S Autoanalyzer (Roche).
In a further experiment, where the above reported ST2195 was used as reference compound, db/db mice were treated orally twice daily (8.30 a.m. and 6.30 p.m.) for 14 days with the test items (equimolar to 25 mg/kg of ST2 195) giving the following results reported in Table 3: […]

Gal4DBD/PPARαLBD = target: T1, Gal4DBD/PPARαLBD (Homo sapiens, UniProt Q07869); assay: Transient transfection of COS-7 cells, Gal4DBD/PPARαLBD transactivation, CAT reporter (II method); type: cell-based; conditions: read-out: percentage activation of the CAT reporter gene compared to reference compound WY-14.643 2 μM taken as 100%
T1 construct: expressed in transfected cells; host or cells: COS-7 (monkey kidney fibroblasts)
T1 sequence (Q07869 239-466 limits assumed): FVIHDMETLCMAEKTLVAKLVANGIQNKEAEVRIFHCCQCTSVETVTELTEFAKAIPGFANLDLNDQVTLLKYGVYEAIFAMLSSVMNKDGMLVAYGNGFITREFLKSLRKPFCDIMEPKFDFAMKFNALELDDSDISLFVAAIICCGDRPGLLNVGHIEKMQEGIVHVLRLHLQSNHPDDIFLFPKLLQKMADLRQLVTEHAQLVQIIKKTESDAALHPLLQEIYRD
Description: Transient Transfection of Eukaryotic Cells to Evaluate the Agonist Activity of PPARα Ligands (II Method)
An alternative transactivation system, which differs mainly in the way the receptor is positioned onto the DNA, and depending on how the event of ligand binding is translated into transcriptional activation, was used.
In this model eukaryotic cells were transiently transfected with an expression vector encoding a fusion protein between the DNA binding domain (DBD) of the yeast Gal4 transcription factor and the ligand binding domain (LBD) of the PPARα (Gal4DBD/PPARαLBD). The reporter vector containing 5 copies of the high affinity binding site for Gal4 (named UAS, upstream activating sequence) upstream of a strong viral promoter linked to the reporter gene chloramphenicol acetyltransferase (CAT), was co-transfected. This model offered some advantages, the most important of which was the absence of interference by endogenous receptors.
Besides expression and reporter vectors, cells were transfected with a control vector pCH110 that encodes the β-galactosidase enzyme to correct for differences in transfection efficiency.
A monkey kidney fibroblast cell line (COS-7) was used. Cells were co-transfected with the plasmid carrying the gene-reporter, the expression plasmid encoding the fusion protein Gal4DBD/PPARαLBD, and the control vector pCH110. Cells were then treated with increasing concentrations of test compounds and the CAT activity was measured. Untreated cells were used as control.
Monkey kidney fibroblasts (COS-7) were routinely grown in DMEM (Dulbecco's modified Eagle's medium) supplemented with 3.7 g/l sodium bicarbonate, 4 mM L-glutamine, 4.5 g/l glucose, 1 mM sodium piruvate and 10% v/v foetal bovine serum, in the presence of streptomycin 100 μg/ml and penicillin 100 U/ml.
COS-7 cells were transiently transfected by using the multi-component lipid-based FuGENE6 Transfection Reagent that complexes with and transports DNA into the cells during transfection. Cells were seeded at 1.2×10^5 cells/well, in 12-well plates, and cultured overnight at 37° C. in a 5% v/v carbon dioxide atmosphere. Two hours before transfection the culture medium was replaced by fresh serum-free medium and then transfection was performed with FuGENE6 Transfection Reagent according to the instructions of the manufacturer. Briefly, the transfection mixture containing (for each well) 0.8 μg of the expression vector, 1.6 μg of the reporter vector, 0.8 μg of the control vector and 9 μl of FuGENE6 Transfection Reagent was added directly to the cells in the presence of serum-free medium. After 5 hours the transfection medium was replaced by 1 ml of the complete culture medium with or without the test molecules at 3 different concentrations (2, 20 and 100 μM). 2 μM Wy-14,643, a known PPARα ligand, was used as positive control.
After 48 h, the cells were washed twice with 1 ml phosphate buffer (PBS) and then harvested by scraping them in TEN buffer (Tris [hydroxymethyl] aminomethane 10 mM pH 8, ethylenediamine tetraacetic acid 1 mM, pH 8, sodium chloride 0.1 M). Following centrifugation at room temperature, for 3 min at 1000 revs per minute (rpm), cells were resuspended with 60 μl of Lysis buffer (0.25M Tris-HCl, pH 8) and lysed by three rapid freeze/thaw cycles (three 5-minute cycles). Cell debris was then removed by centrifugating at 4° C., for 15 min at 15.000 revs per minute (rpm),. Glycerol (final 10% v/v) and β-mercaptoethanol (final 5 mM) were then added (final volume 75 μl) and the cell extracts were stored at −80° C. until assayed.
The CAT activity assay was performed as follows: 20 μl of cell lysate (pre-warmed at 65° C. for 10 min to deactivate internal deacetylase enzymatic activity) were added to 10 μl of 3.5 mg/ml n-butirryl-CoA, 5 μl ([…]) of [14C]-chloramphenicol and 65 μl of distilled H20 and incubated 2 h at 37° C. Reaction was blocked by adding 200 μl of the solution xylene/2,6,10,14 tetramethyl-pentadecane (in a 1:2 v/v mixture). […]

Compound: CC(C)OC(=O)C(C)(C)Oc1ccc(C(=O)c2ccc(Cl)cc2)cc1 [Fenofibrate, reference compound]
P-triglycerides ([1]; 26 mg/Kg/bid by gavage): 43 ± 3 mg/dL
P-Cholesterol ([1]; 26 mg/Kg/bid by gavage): 308 ± 18 mg/dL
P-triglycerides (hAPO A I transgenic mice; 26 mg/kg/bid by gavage): 78 ± 6 mg/dL
Triglycerides (plasma) ([2]; 25 mg/kg/bid by gavage): 38.0 ± 2.9 Δ mg/dl
Triglycerides (plasma) ([2]; 75 mg/kg/bid by gavage): 34.4 ± 2.7 Δ mg/dl
Triglycerides (plasma) ([2]; 125 mg/kg/bid by gavage): 36.0 ± 1.2 Δ mg/dl
Increase in HDL/cholesterol levels (%) (db/db mice; 24.7 mg/kg, 25 days): +18%
Increase in HDL/cholesterol levels (%) (db/db mice; second experiment, 24.7 mg/kg, 16 days): +56[…] %

Compound: COc1ccc(OC(=O)N(CC(=O)O)Cc2ccc(OCCc3nc(-c4ccccc4)oc3C)cc2)cc1 [Muraglitazar, reference compound]
Triglycerides (plasma) ([2]; 5 mg/kg/bid by gavage): 45.6 ± 3.4 mg/dL

Compound: COC(=O)C(C)(C)Sc1ccc(OC(=O)NCc2ccc(OC)cc2)cc1 [ST2031, methyl 2-[4-[[(4-methoxybenzyl)carbamoyl]oxy]phenylthio]isobutyrate]
melting point: 64 to 65 °C
Increase in HDL/cholesterol levels (%) (db/db mice; oral twice daily, dose equivalent to 24 mg of ST1929, 10 days): +51 ▴ %

activation at 2 µM (Gal4DBD/PPARαLBD; 2 μM): 85.7%
activation at 20 µM (Gal4DBD/PPARαLBD; 20 μM): 288%
activation at 100 µM (Gal4DBD/PPARαLBD; 100 μM): 231%
melting point: 81 to 82 °C
Compound: COC(=O)C(C)(C)Sc1cccc(OCc2ccc(-c3ccc([N+](=O)[O-])cc3)o2)c1 [ST2501, methyl 2-[3-[5-(4-nitrophenyl)furfuryl-oxy]phenylthio]isobutyrate]

melting point: 105 to 106 °C
Compound: CC(C)(Sc1cccc(OCCc2ccc(Cl)cc2)c1)C(=O)O [ST2518, 2-[3-[2-(4-chlorophenyl)ethoxy]phenylthio]-2-methylpropanoic acid]
P-Cholesterol ([1]; 25 mg/Kg/bid by gavage): 200 ± 29 Δ mg/dL
effect on plasma-cholesterol and triglyceride levels (in words) ([1]; gavage, high-cholesterol diet): significantly reduced plasma-cholesterol and triglyceride levels
P-triglycerides (hAPO A I transgenic mice; 25 mg/kg/bid by gavage): 36 ± 3 δ mg/dl
P-hdl-cholesterol (hAPO A I transgenic mice; 25 mg/kg/bid by gavage): 252 ± 18 δ mg/dl
effect on HDL-cholesterol (in words) (hAPO A I transgenic mice; gavage): increased HDL-cholesterol more than fenofibrate
effect on triglyceride levels (in words) (hAPO A I transgenic mice; gavage): effective in reducing triglyceride levels
Triglycerides (plasma) ([2]; 5 mg/kg/bid by gavage): 29.4 ± 3.0 Δ mg/dl
Triglycerides (plasma) ([2]; 15 mg/kg/bid by gavage): 29.5 ± 3.4 Δ mg/dl
Triglycerides (plasma) ([2]; 25 mg/kg/bid by gavage): 24.6 ± 2.0 Δ mg/dl
effect on plasma triglyceride levels (in words) ([2]; treatment for 15 days, standard diet): significantly reduced plasma triglyceride levels to a higher extent than fenofibrate and muraglitazar
Increase in HDL-cholesterol levels (%) (db/db mice; further experiment, oral twice daily 14 days, dose equimolar to 25 mg/kg of ST2195, 8 hours after last treatment): +46Δ %

melting point: 87 to 88 °C
Compound: CC(C)(Sc1ccc(OCCc2ccc(Cl)cc2)cc1)C(=O)O [ST 2505, 2-[4-[2-(4-chlorophenyl)ethoxy]phenylthio]-2-methylpropanoic acid]

Compound: CCc1ccc(CCOc2ccc(CC3SC(=O)NC3=O)cc2)nc1 (stereo not shown) [pioglitazone]
P-triglycerides ([1]; 20 mg/Kg/bid by gavage): 43 ± 4 mg/dL
P-Cholesterol ([1]; 20 mg/Kg/bid by gavage): 345 ± 27 mg/dL

Compound: CN(CCOc1ccc(CC2SC(=O)NC2=O)cc1)c1ccccn1 (stereo not shown) [rosiglitazone, reference compound]
P-triglycerides ([1]; 5 mg/Kg/bid by gavage): 41 ± 3 mg/dL
P-Cholesterol ([1]; 5 mg/Kg/bid by gavage): 354 ± 23 mg/dL
P-triglycerides (hAPO A I transgenic mice; 5 mg/kg/bid by gavage): 74 ± 10 mg/dL
P-hdl-cholesterol (hAPO A I transgenic mice; 5 mg/kg/bid by gavage): 144 ± 18 mg/dL
